Assay results: patent US11332459B2 (TEIJIN PHARMA LIMITED, priority 2017, dated 2022)

Target: T1, human TRPC6 (Homo sapiens, UniProt Q9Y210)
T1 construct: expressed in transfected cells
T1 sequence (Q9Y210 1-931): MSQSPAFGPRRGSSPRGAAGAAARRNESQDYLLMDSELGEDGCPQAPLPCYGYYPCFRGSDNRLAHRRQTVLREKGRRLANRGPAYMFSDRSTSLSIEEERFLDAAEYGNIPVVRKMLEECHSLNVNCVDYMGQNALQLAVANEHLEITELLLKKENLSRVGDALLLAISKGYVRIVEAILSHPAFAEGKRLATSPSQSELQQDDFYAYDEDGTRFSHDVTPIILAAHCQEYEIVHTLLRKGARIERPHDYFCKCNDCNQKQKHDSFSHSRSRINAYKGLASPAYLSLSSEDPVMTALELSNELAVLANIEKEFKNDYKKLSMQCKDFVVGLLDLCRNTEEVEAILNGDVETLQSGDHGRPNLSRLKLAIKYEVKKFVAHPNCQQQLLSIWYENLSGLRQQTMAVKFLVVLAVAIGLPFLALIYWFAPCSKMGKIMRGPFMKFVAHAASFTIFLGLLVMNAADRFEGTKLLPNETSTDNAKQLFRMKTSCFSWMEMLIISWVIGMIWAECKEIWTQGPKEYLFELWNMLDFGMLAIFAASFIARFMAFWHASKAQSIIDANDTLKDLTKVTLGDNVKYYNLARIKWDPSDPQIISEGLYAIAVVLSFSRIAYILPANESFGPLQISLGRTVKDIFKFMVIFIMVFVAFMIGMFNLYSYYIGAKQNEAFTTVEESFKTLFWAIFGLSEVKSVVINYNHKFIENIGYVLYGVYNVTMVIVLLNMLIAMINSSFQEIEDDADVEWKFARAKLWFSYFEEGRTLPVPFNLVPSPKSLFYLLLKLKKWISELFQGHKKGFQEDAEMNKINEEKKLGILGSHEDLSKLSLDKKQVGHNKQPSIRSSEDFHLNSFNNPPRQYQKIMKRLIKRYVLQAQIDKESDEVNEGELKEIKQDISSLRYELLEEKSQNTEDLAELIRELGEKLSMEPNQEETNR
Experiment: TRPC6 calcium flux assay (FLIPR, OAG-stimulated calcium influx)
Format: cell-based
Conditions: HEK293 cells stably transfected with human TRPC6, read-out: hTRPC6 Potency
Experimental: Biological Example 1 TRPC6 Calcium Flux Assay
Potency of TRPC6 (Transient receptor potential channel family C6) inhibitors were measured by their inhibition of Calcium influx trigged by […] (1-Oleoyl-2-acetyl-sn-glycerol, Millipore Sigma, O6754) stimulation on HEK293 cells stablely transfected with human TRPC6 using a FLIPR tetra system. Cells were grown in a humidified environment at 37° C. under 5% CO2 using the growth medium with the following selective reagents (Dulbecco's Modified Eagle's Medium (DMEM) high glucose, 10% Fetal Bovine Serum, 1×PSGlu (penicillin-streptomycin glutamine), 1×NEAA (Non-essential amino acid), 1× Na Pyruvate and 200 ug/ml Hygromycin). For general passage, cells were grown to 70-90% confluency; the media was removed, and the cells were gently washed 2 times with calcium and magnesium free PBS (phosphate-buffered saline). Trypsin (3 mL) was applied for 5 minutes at 37° C. The cells were dislodged by rapping flask against base of a hand and 7 mL of growth medium was added to deactivate trypsin and re-suspend cells. The usual splitting schedule was 1:5 every 2-3 days.
Cells were plated the day before the assay, plating cell density is 1.0-1.5×10^4/25 μl/well in poly-D-lysine (PDL) coated 384-well plates using either multichannel pipettes or multidrop. These cells were first incubated with fluorescence dye at room temperature for 90-120 minutes after they were grown on PDL-coated 384-well black plates overnight (Dye loading buffer 10 ml example: 9 mL assay buffer, 1 mL, 10×PBX signal enhancer, 10 μL Calcium indicator). The cells were incubated with a dose of compounds for 25 minutes before being stimulated with TRPC6 agonist OAG. The OAG solution was prepared by adding OAG into assay buffer (Ca ringer solution base: 10 mM HEPES (4-(2-hydroxyethyl)-1-piperazine-ethanesulfonic acid), 4 mM MgCl2, 120 mM NaCl, 5 mM KCl, pH=7.2 @25° C.)+0.1% BSA+2 mM CaCl2) to the concentration of 0.2 mM/2% DMSO, which achieves a final on cell concentration of 50 uM/0.5% DMSO. 12.5 uL OAG mixture was added and the activation of the TRPC6 channel was measured by the change of intracellular Calcium levels on FLIPR terra system.
Data was acquired by measuring the fluorescent peak signal subtracted from the background during the 180 second imaging frame. Each data point is further normalized to 100% of OAG triggered signal vs. buffer. Table 16 provides the IC50 for each compound, which data is obtained by plotting peak signal over the compound dose.

IC50 [nM]	SMILES
3.2	N#Cc1ccc(Cn2c(N3CCC[C@H](N)C3)nc3cc(Cl)ccc32)nc1 [Example 2, (S)-6-((2-(3-aminopiperidin-1-yl)-5-chloro-1H-benzo[d]imidazol-1-yl)methyl)nicotinonitrile]
1.99	N#Cc1ccc(Cn2c(N3CCC[C@H](N)C3)nc3c(Cl)cccc32)nc1 [Example 3, (S)-6-((2-(3-aminopiperidin-1-yl)-4-chloro-1H-benzo[d]imidazol-1-yl)methyl)nicotinonitrile]
1.67	N#Cc1ccc(Cn2c(N3CC[C@@H](F)[C@H](N)C3)nc3c(Cl)cccc32)nc1 [Example 4]
2.92	N#Cc1ccc(Cn2c(N3CC[C@H](F)[C@H](N)C3)nc3c(Cl)cccc32)nc1 [Example 5]
0.4	N#Cc1ccc(Cn2c(N3CC[C@@H](F)[C@H](N)C3)nc3ccc(Cl)cc32)nc1 [Example 6, 6-((2-((3R,4R)-3-amino-4-fluoropiperidin-1-yl)-6-chloro-1H-benzo[d]imidazol-1-yl)methyl)nicotinonitrile]
1.17	N#Cc1ccc(Cn2c(N3CC[C@@H](F)[C@H](N)C3)nc3cc(Cl)ccc32)nc1 [Example 7, 6-((2-((3R,4R)-3-amino-4-fluoropiperidin-1-yl)-5-chloro-1H-benzo[d]imidazol-1-yl)methyl)nicotinonitrile]
0.283	N#Cc1ccc(Cn2c(N3CC[C@H](F)[C@H](N)C3)nc3ccc(Cl)cc32)nc1 [Example 8, 6-((2-((3R,4S)-3-amino-4-fluoropiperidin-1-yl)-6-chloro-1H-benzo[d]imidazol-1-yl)methyl)nicotinonitrile]
1.61	N#Cc1ccc(Cn2c(N3CC[C@H](F)[C@H](N)C3)nc3cc(Cl)ccc32)nc1 [Example 9, 6-((2-((3R,4S)-3-amino-4-fluoropiperidin-1-yl)-5-chloro-1H-benzo[d]imidazol-1-yl)methyl)nicotinonitrile]
6.06	N#Cc1ccc(Cn2c(N3CCC(F)(F)[C@H](N)C3)nc3c(Cl)cccc32)nc1 [Example 10, (R)-6-((2-(3-amino-4,4-difluoropiperidin-1-yl)-4-chloro-1H-benzo[d]imidazol-1-yl)methyl)nicotinonitrile]
1.79	N#Cc1ccc(Cn2c(N3CC[C@@H](F)[C@H](N)C3)nc3c(C#N)cccc32)nc1 [Example 11, 2-((3R,4R)-3-amino-4-fluoropiperidin-1-yl)-1-((5-cyanopyridin-2-yl)methyl)-1H-benzo[d]imidazole-4-carbonitrile]
0.285	N#Cc1ccc(Cn2c(N3CCC(F)(F)[C@H](N)C3)nc3ccc(Cl)cc32)nc1 [Example 12, (R)-6-((2-(3-amino-4,4-difluoropiperidin-1-yl)-6-chloro-1H-benzo[d]imidazol-1-yl)methyl)nicotinonitrile]
6.87	N#Cc1ccc(Cn2c(N3CCC(F)(F)[C@H](N)C3)nc3cc(Cl)ccc32)nc1 [Example 13, (R)-6-((2-(3-amino-4,4-difluoropiperidin-1-yl)-5-chloro-1H-benzo[d]imidazol-1-yl)methyl)nicotinonitrile]
0.377	N#Cc1ccc(Cn2c(N3CC[C@@H](F)[C@H](N)C3)nc3ccc(C(F)(F)F)cc32)nc1 [Example 14, 6-((2-((3R,4R)-3-amino-4-fluoropiperidin-1-yl)-6-(trifluoromethyl)-1H-benzo[d]imidazol-1-yl)methyl)nicotinonitrile]
4.39	N#Cc1ccc(Cn2c(N3CC[C@@H](F)[C@H](N)C3)nc3cc(C(F)(F)F)ccc32)nc1 [Example 15, 6-((2-((3R,4R)-3-amino-4-fluoropiperidin-1-yl)-5-(trifluoromethyl)-1H-benzo[d]imidazol-1-yl)methyl)nicotinonitrile]
224	N#Cc1ccc(Cn2c(N3CC[C@H](F)[C@@H](N)C3)nc3ccccc32)nc1 [Example 16, 6-((2-((3S,4S)-3-amino-4-fluoropiperidin-1-yl)-1H-benzo[d]imidazol-1-yl)methyl)nicotinonitrile]
118	N#Cc1ccc(Cn2c(N3C[C@@H](N)CC(F)(F)C3)nc3ccccc32)nc1 [Example 17, (S)-6-((2-(5-amino-3,3-difluoropiperidin-1-yl)-1H-benzo[d]imidazol-1-yl)methyl)nicotinonitrile]
7.85	N#Cc1ccc(Cn2c(N3CC[C@@H](F)[C@H](N)C3)nc3c(C#N)cc(F)cc32)nc1 [Example 18, 2-((3R,4R)-3-amino-4-fluoropiperidin-1-yl)-1-((5-cyanopyridin-2-yl)methyl)-6-fluoro-1H-benzo[d]imidazole-4-carbonitrile]
0.956	N#Cc1ccc(Cn2c(N3CC[C@@H](F)[C@H](N)C3)nc3ccc(OC(F)(F)F)cc32)nc1 [Example 19, 6-((2-((3R,4R)-3-amino-4-fluoropiperidin-1-yl)-6-(trifluoromethoxy)-1H-benzo[d]imidazol-1-yl)methyl)nicotinonitrile]
1.92	N#Cc1ccc(Cn2c(N3CC[C@@H](F)[C@H](N)C3)nc3cc(OC(F)(F)F)ccc32)nc1 [Example 20, 6-((2-((3R,4R)-3-amino-4-fluoropiperidin-1-yl)-5-(trifluoromethoxy)-1H-benzo[d]imidazol-1-yl)methyl)nicotinonitrile]
0.658	N#Cc1ccc(Cn2c(N3CC[C@@H](F)[C@H](N)C3)nc3cc(C(F)(F)F)c(F)cc32)nc1 [Example 21, 6-((2-((3R,4R)-3-amino-4-fluoropiperidin-1-yl)-6-fluoro-5-(trifluoromethyl)-1H-benzo[d]imidazol-1-yl)methyl)nicotinonitrile]
1.62	N#Cc1ccc(Cn2c(N3CC[C@@H](F)[C@H](N)C3)nc3cc(F)c(C(F)(F)F)cc32)nc1 [Example 22, 6-((2-((3R,4R)-3-amino-4-fluoropiperidin-1-yl)-5-fluoro-6-(trifluoromethyl)-1H-benzo[d]imidazol-1-yl)methyl)nicotinonitrile]
> 3750	N#Cc1ccc(Cn2c(N3CC[C@@H]4CCN[C@H]4C3)nc3ccccc32)nc1 [Example 23, 6-((2-((3aS,7aR)-hexahydro-1H-pyrrolo[2,3-c]pyridin-6(2H)-yl)-1H-benzo[d]imidazol-1-yl)methyl)nicotinonitrile]
145	N#Cc1ccc(Cn2c(N3CC[C@@H]4CCN[C@@H]4C3)nc3ccccc32)nc1 [Example 24, 6-((2-((3aS,7aS)-hexahydro-1H-pyrrolo[2,3-c]pyridin-6(2H)-yl)-1H-benzo[d]imidazol-1-yl)methyl)nicotinonitrile]
210	N#Cc1ccc(Cn2c(N3CCC4CCN[C@@H]4C3)nc3ccccc32)nc1 (stereo partly drawn) [Example 25, 6-((2-((3aS,7aS)-hexahydro-1H-pyrrolo[2,3-c]pyridin-6(2H)-yl)-1H-benzo[d]imidazol-1-yl)methyl)nicotinonitrile]
161	N#Cc1ccc(Cn2c(N3CCC4CCN[C@H]4C3)nc3ccccc32)nc1 (stereo partly drawn) [Example 26, 6-((2-((3aS,7aR)-hexahydro-1H-pyrrolo[2,3-c]pyridin-6(2H)-yl)-1H-benzo[d]imidazol-1-yl)methyl)nicotinointrile]
